Assay results reported in ChEMBL document CHEMBL1146688, “Aminoimidazoles as bioisosteres of acylguanidines: novel, potent, selective and orally bioavailable inhibitors of the sodium hydrogen exchanger isoform-1” (Bioorg Med Chem Lett, 2004).

Assays:
[1] = biological target: Sodium/hydrogen exchanger 1 (Homo sapiens, UniProt P19634); experiment: Inhibition of sodium dependent recovery of pH following imposed acidosis in AP1 cell line expressing the human NHE-1 isoform.; format: functional, cell-based
[2] = Oral bioavailability in rat (dose 2.8 mg/kg p.o.); format: ADME, organism-based; conditions: in vivo
[3] = Plasma half life in rat at oral dose 2.8 mg/mk body weight; format: ADME, organism-based

Chain of Sodium/hydrogen exchanger 1 (P19634 whole entry, canonical isoform): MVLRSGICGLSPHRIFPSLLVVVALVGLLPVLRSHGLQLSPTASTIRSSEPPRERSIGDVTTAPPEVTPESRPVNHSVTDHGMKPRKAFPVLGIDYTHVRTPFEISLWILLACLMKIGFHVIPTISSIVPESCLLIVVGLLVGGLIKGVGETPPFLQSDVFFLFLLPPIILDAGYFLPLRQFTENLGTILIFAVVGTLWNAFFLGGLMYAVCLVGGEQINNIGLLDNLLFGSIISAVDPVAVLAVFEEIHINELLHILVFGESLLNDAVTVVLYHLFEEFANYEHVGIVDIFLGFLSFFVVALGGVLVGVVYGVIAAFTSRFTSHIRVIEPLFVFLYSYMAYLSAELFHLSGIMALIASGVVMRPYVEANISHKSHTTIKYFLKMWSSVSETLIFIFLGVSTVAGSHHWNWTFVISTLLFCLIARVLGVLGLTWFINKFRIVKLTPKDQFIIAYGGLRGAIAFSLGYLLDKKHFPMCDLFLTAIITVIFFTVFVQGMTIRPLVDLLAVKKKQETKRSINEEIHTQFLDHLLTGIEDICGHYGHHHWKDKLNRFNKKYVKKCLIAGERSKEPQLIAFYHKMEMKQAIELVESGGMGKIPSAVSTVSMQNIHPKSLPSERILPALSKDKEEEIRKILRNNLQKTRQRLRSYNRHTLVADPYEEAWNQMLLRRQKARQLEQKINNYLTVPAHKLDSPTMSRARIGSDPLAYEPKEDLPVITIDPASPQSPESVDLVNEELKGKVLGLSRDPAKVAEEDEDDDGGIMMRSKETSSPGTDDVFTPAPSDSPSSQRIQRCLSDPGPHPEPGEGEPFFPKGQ

IC50 [1]	bioavailability [2]	Compound	half-life [3]
8 µM	–	CC1(C)C(c2cccc(Cl)c2)[C@H]1c1cnc(N)s1 (single isomer, unassigned)	–
3.8 µM	–	CC1(C)[C@H](c2c[nH]c(N)n2)[C@H]1c1cccc2c1CCO2	–
0.021 µM	26%	CC1(C)C(c2cccc(Cl)c2)[C@H]1C(=O)NC(=N)N (single isomer, unassigned)	5 h
0.95 µM	–	Cc1[nH]cnc1[C@@H]1C(c2cc(Cl)cc(Cl)c2)C1(C)C (single isomer, unassigned)	–
0.008 µM	–	Cc1[nH]c(N)nc1[C@@H]1C(c2cc(Cl)cc(Cl)c2)C1(C)C (single isomer, unassigned)	–
4.85 µM	–	CSc1nccn1[C@@H]1[C@@H](c2cccc(Cl)c2)C1(C)C	–
3.6 µM	–	CC1(C)C(c2cc(Cl)cc(Cl)c2)[C@H]1c1cc(N)nc(N)n1 (single isomer, unassigned)	–
0.18 µM	–	CC1(C)C(c2cc(Cl)cc(Cl)c2)[C@H]1c1c[nH]c(N)n1 (single isomer, unassigned)	–
30 µM	–	CC1(C)[C@H](c2nc(N)no2)[C@H]1c1cccc2c1CCO2	–
> 30 µM	–	CC1(C)[C@H](c2cnc(N)s2)[C@H]1c1cccc2c1CCO2	–
2.6 µM	–	Cc1[nH]c(N)nc1[C@@H]1[C@@H](c2cccc3c2CCO3)C1(C)C	–
0.039 µM	26%	Cc1nc(N)[nH]c1[C@@H]1C(c2cccc(Cl)c2)C1(C)C (single isomer, unassigned)	5 h
0.75 µM	–	CC1(C)C(c2cccc(Cl)c2)[C@H]1c1c[nH]c(N)n1 (single isomer, unassigned)	–
> 30 µM	–	CC1(C)C(c2cc(Cl)cc(Cl)c2)[C@H]1c1cnc(N)s1 (single isomer, unassigned)	–

Compound	IC50 [1]	bioavailability [2]	half-life [3]
CC1(C)C(c2cc(Cl)cc(Cl)c2)[C@H]1c1cnc[nH]1 (single isomer, unassigned)	4 µM	–	–
CC1(C)[C@H](c2c[nH]cn2)[C@H]1c1cccc2c1CCO2	> 30 µM	–	–
Cc1[nH]cnc1[C@@H]1[C@@H](c2cccc3c2CCO3)C1(C)C	11 µM	–	–
